Counter-ions that a name gives are not always drawn.
Columns and labels:
HPK1 [1] = target: HPK1 (Homo sapiens, UniProt Q92918); assay: SLP76 phosphorylation assay (intracellular HPK1 inhibitory activity, p-SLP76 S376 ELISA in Jurkat cells); details: Clone E6-1 cells, 1 h compound pre-incubation, anti-CD3 beads stimulation 20 min, Phospho-SLP-76 (Ser376) ELISA
Target sequence in this assay (Q92918 whole entry): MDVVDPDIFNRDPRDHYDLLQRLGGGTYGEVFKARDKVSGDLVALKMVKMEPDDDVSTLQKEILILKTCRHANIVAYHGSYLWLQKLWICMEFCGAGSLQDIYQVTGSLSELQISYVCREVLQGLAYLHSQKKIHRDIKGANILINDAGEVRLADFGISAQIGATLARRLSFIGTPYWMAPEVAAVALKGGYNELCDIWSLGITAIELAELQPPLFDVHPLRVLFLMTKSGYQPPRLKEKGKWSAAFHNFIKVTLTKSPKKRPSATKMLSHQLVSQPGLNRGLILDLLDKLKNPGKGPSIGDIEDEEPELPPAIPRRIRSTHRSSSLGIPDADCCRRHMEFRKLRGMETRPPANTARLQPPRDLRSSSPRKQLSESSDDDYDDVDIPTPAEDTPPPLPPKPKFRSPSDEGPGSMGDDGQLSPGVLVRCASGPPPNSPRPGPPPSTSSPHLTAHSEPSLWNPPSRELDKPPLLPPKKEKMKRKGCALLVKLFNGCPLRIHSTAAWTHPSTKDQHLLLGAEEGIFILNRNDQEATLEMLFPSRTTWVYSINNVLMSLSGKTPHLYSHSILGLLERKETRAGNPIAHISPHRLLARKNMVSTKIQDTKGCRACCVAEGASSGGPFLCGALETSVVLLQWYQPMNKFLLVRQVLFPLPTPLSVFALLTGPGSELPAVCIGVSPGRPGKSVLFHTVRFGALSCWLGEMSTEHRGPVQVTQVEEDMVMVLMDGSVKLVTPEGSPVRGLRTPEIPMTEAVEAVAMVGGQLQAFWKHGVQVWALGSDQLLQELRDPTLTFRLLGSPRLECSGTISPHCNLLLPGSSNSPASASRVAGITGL

HPK1 [2] = target: T1, HPK1 (Homo sapiens, UniProt Q92918); assay: HPK1 kinase activity assay (ADP-Glo); details: 1 nM HPK1, 10 μM ATP, 0.1 μg/μL MBP
T1 sequence (Q92918 1-346): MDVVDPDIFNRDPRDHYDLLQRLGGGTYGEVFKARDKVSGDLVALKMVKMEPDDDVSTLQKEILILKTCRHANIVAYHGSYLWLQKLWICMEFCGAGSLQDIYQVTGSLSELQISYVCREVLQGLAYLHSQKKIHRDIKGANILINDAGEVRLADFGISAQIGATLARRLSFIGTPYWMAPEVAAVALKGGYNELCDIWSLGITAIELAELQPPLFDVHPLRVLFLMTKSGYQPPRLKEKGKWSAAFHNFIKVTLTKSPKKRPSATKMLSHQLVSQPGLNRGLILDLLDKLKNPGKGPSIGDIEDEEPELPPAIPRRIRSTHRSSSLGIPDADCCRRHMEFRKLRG
Experimental: Preparation of buffer: Ix reaction buffer (40 mM Tris-HCl, 20 mM MgCl2, 0.01% Brij35, 50 μM DTT, 0.1 mg/ml BSA) was prepared using sterile water, which was prepared and used on the day of the experiment.
Preparation of 1000× drug stock plate: a 1000× compound stock plate was prepared. […] The compound stock plate was sealed with a sealing film and stored in a −20° C. refrigerator for later use.
Compound preparation and dosing: the 1000× drug stock plate was taken and melted at room temperature in the dark. Then 5× drug intermediate plate was prepared using reaction buffer and mixed well. 2 μL was transferred from the 5× drug intermediate plate into a 384-well plate, and negative control well and positive control well (in which 2 μL reaction buffer containing 0.5% DMSO was added) were set. Each point was repeated twice.
Preparation and incubation of reaction mixture: HPK1 protein was diluted to a 2.5× working solution with reaction buffer. 4 μL 2.5×HPK1 protein was added to each well containing test compound and positive control well, and 4 μL of reaction buffer without HPK1 protein was added to the negative control well. The obtained mixture was centrifuged at 1000 rpm for 1 min and then incubated in a 20° C. incubator for 15 min. A 2.5× mixed working solution of MBP protein and ATP was prepared with reaction buffer at concentrations of 0.5 μg/μL and 50 μM, respectively. 4 μL of the mixed working solution of MBP and ATP was added to each well, centrifuged at 1000 rpm for 1 min, and then incubated in a 20° C. incubator for 90 min.
ADP-Glo detection and reading plate: 10 μl ADP-Glo was added to each well of the test plate. The resulting mixture was centrifuged at 1000 rpm for 1 min and incubated in a 20° C. incubator for 60 min. Then 10 μL of the final incubation solution was transferred from the test plate to a new 384-well plate. 10 μL of kinase detection reagent was added to each well, centrifuged at 400 g for 1 min, and incubated in a 20° C. incubator for 60 min Chemiluminescent signals were read by a microplate reader.

[3] = HPK1 Kinase activity IC50, ADP-Glo

| IC50 (HPK1 [1]; p-SLP76 IC50, Jurkat) [nM] | IC50 (HPK1 [2]; [3]) [nM] | Compound | IC50 (HPK1 [1]; read-out: p-SLP76 IC50, Jurkat) [nM] | IC50 (HPK1 [2]; read-out: HPK1 Kinase activity IC50, ADP-Glo) [nM] |
| --- | --- | --- | --- | --- |
| 44.2 | 0.11 | Cc1c[nH]c2ncc(-c3cc4c(c([C@@H]5COCCN5)c3)CN(C(=O)N3CC5CCC(C3)O5)CC4)cc12 [Compound Z451, (8-oxa-3-azabicyclo[3.2.1]octan-3-yl)(6-(3-methyl-1H-pyrrolo[2,3-b]pyridin-5-yl)-8-((R)-morpholin-3-yl)-3,4-dihydroisoquinolin-2(1H)-yl)methanone] |  |  |
| 158 | 0.22 | Cc1c[nH]c2ncc(-c3cc4c(c([C@@H]5COCCN5)c3)CN(C(=O)C3(O)CCOCC3)CC4)cc12 [Compound Z450] |  |  |
| 62.9 | 0.25 | O=C(N1CCc2cc(-c3cnc4[nH]cc(C(F)(F)F)c4n3)cc([C@@H]3COCCN3)c2C1)N1CC2CCC(C1)O2 [Compound Z606, (8-oxa-3-azabicyclo[3.2.1]octan-3-yl)(8-((R)-morpholin-3-yl)6-(7-(trifluoromethyl)-5H-pyrrolo[2,3-b]pyrazin-2-yl)-3,4-dihydroisoquinolin-2(1H)-yl)methanone] |  |  |
| 106 | 0.18 | Cc1c[nH]c2ncc(-c3cc4c(c([C@@H]5COCCN5)c3)CN(C(=O)C(C)(C)O)CC4)cc12 [Compound Z372, (R)-2-hydroxy-2-methyl-1-[6-(3-methyl-1H-pyrrolo[2,3-b]pyridin-5-yl)-8-[morphin-3-yl]-3,4-dihydroisoquinolin-2(1H)-yl]propan-1-one] |  |  |
| 253 | 0.85 | CC(C)(O)C(=O)N1CCc2cc(-c3cnc4[nH]cc(F)c4c3)cc([C@@H]3COCCN3)c2C1 [Compound Z445, (R)-1-(6-(3-fluoro-1H-pyrrolo[2,3-b]pyridin-5-yl)-8-(morpholin-3-yl)-3,4-dihydroisoquinolin-2(1H)-yl)-2-hydroxy-2-methylpropan-1-one] |  |  |
|  |  | 5-(8-(4-fluoropyrrolidin-2-yl)isochromen-6-yl)-3-methyl-1H-pyrrolo[2,3-b]pyridine [Compound Z367-1] | 999 | 1.44 |
| 207 | 0.76 | Cc1c[nH]c2ncc(-c3cc4c(c([C@@H]5COCCN5)c3)CN(C(=O)C3(C)CCOCC3)CC4)cc12 [Compound Z615, (R)-(6-(3-methyl-1H-pyrrolo[2,3-b]pyridin-5-yl)-8-(morpholin-3-yl)-3,4-dihydroisoquinolin-2(1H)-yl)(4-methyltetrahydro-2H-pyran-4-yl)methanone] |  |  |
| 321 | 0.69 | Cc1c[nH]c2ncc(-c3cc4c(c([C@@H]5CCCN5)c3)CN(C(=O)[C@@H](O)c3cccnc3)CC4)cc12 (single isomer, unassigned) [Compound Z288] |  |  |
| 31.9 | 0.13 | Cc1c[nH]c2ncc(-c3cc4c(c([C@@H]5COCCN5)c3)CN(C(=O)N3C5CCC3COC5)CC4)nc12 [Compound Z570, (3-oxa-8-azabicyclo[3.2.1]octan-8-yl)(6-(7-methyl-5H-pyrrolo[2,3-b]pyrazin-2-yl)-8-((R)-morpholin-3-yl)-3,4-dihydroisoquinolin-2(1H)-yl)methanone] |  |  |
| 86.2 | 0.36 | CC1(C)CC(O)CN1C(=O)N1CCc2cc(-c3cnc4[nH]cc(Cl)c4c3)cc([C@@H]3COCCN3)c2C1 (stereo partly drawn) [Compound Z617, (6-(3-chloro-1H-pyrrolo[2,3-b]pyridin-5-yl)-8-((R)-morpholin-3-yl)-3,4-dihydroisoquinolin-2(1H)-yl)(4-hydroxy-2,2-dimethylpyrrolidin-1-yl)methanone] |  |  |
| 108 | 0.49 | O=C(N1CCc2cc(-c3cnc4[nH]cc(Cl)c4n3)cc([C@@H]3COCCN3)c2C1)N1C2CCC1COC2 [Compound Z571, (3-oxa-8-azabicyclo[3.2.1]octan-8-yl)(6-(7-chloro-5H-pyrrolo[2,3-b]pyrazin-2-yl)-8-((R)-morpholin-3-yl)-3,4-dihydroisoquinolin-2(1H)-yl)methanone] |  |  |
| 143 | 0.24 | CC(C)(O)C(=O)N1CCc2cc(-c3cnc4[nH]cc(C(F)(F)F)c4c3)cc([C@@H]3COCCN3)c2C1 [Compound Z473, (R)-2-hydroxy-2-methyl-1-(8-(morpholin-3-yl)-6-(3-(trifluoromethyl)-1H-pyrrolo[2,3-b]pyridin-5-yl)-3,4-dihydroisoquinolin-2(1H)-yl)propan-1-one] |  |  |
| 211 | 0.33 | CCNC(=O)N1CCc2cc(-c3cnc4[nH]cc(C)c4c3)cc([C@@H]3COCCN3)c2C1 [Compound Z376, (R)—N-ethyl-6-(3-methyl-1H-pyrrolo[2,3-b]pyridin-5-yl)-8-(morpholin-3-yl)-3,4-dihydroisoquinoline-2(1H)-carboxamide formate] |  |  |
| 50.1 | 0.12 | O=C(N1CCc2cc(-c3cnc4[nH]cc(C(F)(F)F)c4c3)cc([C@@H]3COCCN3)c2C1)N1CC2CCC(C1)O2 [Compound Z544, (8-oxa-3-azabicyclo[3.2.1]octan-3-yl)(8-((R)-morpholin-3-yl)-6-(3-(trifluoromethyl)-1H-pyrrolo[2,3-b]pyridin-5-yl)-3,4-dihydroisoquinolin-2(1H)-yl)methanone] |  |  |
| 76 | 0.36 | Cc1c[nH]c2ncc(-c3cc4c(c([C@@H]5COCCN5)c3)CN(C(=O)N3CCC(F)(F)CC3)CC4)nc12 [Compound Z624, (R)-(4,4-difluoropiperidin-1-yl)(6-(7-methyl-5H-pyrrolo[2,3-b]pyrazin-2-yl)-8-(morpholin-3-yl)-3,4-dihydroisoquinolin-2(1H)-yl)methanone] |  |  |
| 62.7 | 0.22 | CC(C)(O)C(=O)N1CCc2cc(-c3cnc4[nH]cc(Cl)c4c3)cc([C@@H]3CCCN3)c2C1 [Compound Z496] |  |  |
| 67 | 0.21 | CCc1c[nH]c2ncc(-c3cc4c(c([C@@H]5COCCN5)c3)CN(C(=O)C(C)(C)O)CC4)cc12 [Compound Z476, (R)-1-(6-(3-ethyl-1H-pyrrolo[2,3-b]pyridin-5-yl)-8-(morpholin-3-yl)-3,4-dihydroisoquinolin-2(1H)-yl)-2-hydroxy-2-methylpropan-1-one] |  |  |
| 78.1 | 0.25 | Cc1c[nH]c2ncc(-c3cc4c(c([C@@H]5COCCN5)c3)CN(C(=O)N3CC(O)CC3(C)C)CC4)cc12 (stereo partly shown) [Compound Z577] |  |  |
| 430 | 1.66 | Cc1c[nH]c2ncc(-c3cc4c(c([C@@H]5CCCN5)c3)CN(C(=O)N3CCOC(C(F)(F)F)C3)CC4)cc12 (single isomer, unassigned) [Compound Z490] |  |  |
| 95.7 | 0.18 | Cc1c[nH]c2ncc(-c3cc4c(c([C@@H]5COCCN5)c3)CN(C(=O)N3C5CCC3COC5)CC4)cc12 [Compound Z492, (3-oxa-8-azabicyclo[3.2.1]octan-8-yl)(6-(3-methyl-1H-pyrrolo[2,3-b]pyridin-5-yl)-8-((R)-morpholin-3-yl)-3,4-dihydroisoquinolin-2(1H)-yl)methanone] |  |  |
| 61.6 | 0.25 | Cc1c[nH]c2ncc(-c3cc4c(c([C@@H]5COCCN5)c3)CN(C(=O)N3C[C@@H]5CC[C@H]3CO5)CC4)cc12 (single isomer, unassigned) [Compound Z644] |  |  |
| 205 | 0.49 | Cc1cc(CC(=O)N2CCc3c(cc(-c4cnc5[nH]cc(C)c5c4)cc3[C@@H]3CCCN3)C2)ccn1 [Compound Z333, (S)-2-(2-methyl-4-pyridyl)-1-[7-(3-methyl-1H-pyrrolo[2,3-b]pyridin-5-yl)-5-pyrrolidin-2-yl-3,4-dihydro-1H-isoquinolin-2-yl]ethanone] |  |  |
| 196 | 0.83 | Cc1c[nH]c2ncc(-c3cc4c(c([C@@H]5COCCN5)c3)CCN(C(=O)[C@H]3CCOC3)C4)cc12 [Compound Z446, (7-(3-methyl-1H-pyrrolo[2,3-b]pyridin-5-yl)-5-((R)-morpholin-3-yl)-3,4-dihydroisoquinolin-2(1H)-yl)((S)-tetrahydrofuran-3-yl)methanone] |  |  |
| 295 | 0.41 | Cc1c[nH]c2ncc(-c3cc4c(c([C@@H]5CCCN5)c3)CN(C(=O)c3cc(C5CC5)nn3C)CC4)cc12 [Compound Z493, (S)-(3-cyclopropyl-1-methyl-1H-pyrazol-5-yl)-[6-(3-methyl-1H-pyrrolo[2,3-b]pyridin-5-yl)-8-[pyrrolidin-5-yl]-3,4-dihydroisoquinolin-2(1H)-yl]methanone] |  |  |
| 81.8 | 0.24 | Cc1c[nH]c2ncc(-c3cc4c(c([C@@H]5COCCN5)c3)CN(C(=O)N3CCC(F)CC3)CC4)nc12 [Compound Z566, (R)-(4-fluoropiperidin-1-yl)(6-(7-methyl-5H-pyrrolo[2,3-b]pyrazin-2-yl)-8-(morpholin-3-yl)-3,4-dihydroisoquinolin-2(1H)-yl)methanone] |  |  |
| 349 | 0.72 | CCc1c(Cl)[nH]c2ncc(-c3cc4c(c([C@@H]5COCCN5)c3)CN(C(=O)C(C)(C)O)CC4)cc12 [Compound Z422, (R)-1-(6-(2-chloro-3-ethyl-1H-pyrrolo[2,3-b]pyridin-5-yl)-8-(morpholin-3-yl)-3,4-dihydroisoquinolin-2(1H)-yl)-2-hydroxy-2-methylpropan-1-one] |  |  |
